# Data reported in patent US20110269695A1, “NOVEL ANTI-AGING PEPTIDES AND COSMETIC AND/OR PHARMACEUTICAL COMPOSITION CONTAINING SAME” (ISP INVESTMENTS, priority 2009, published 2011).
# Where no end group is shown, it is not given here.
# Experiments:
# [1] = tested on: Clock protein; experiment: Immunolabeling of Clock protein in skin samples aged artificially during culture; format: cell-based, human
# Procedure: A study of the activating effect of the peptide SEQ ID no. 3 was carried out by evaluating the expression of the Clock protein in skin models, aged artificially during culture. The analysis was carried out after 62 hr and 134 hr of culturing.
# Ex vivo studies by immunolabeling have made it possible to evidence the expression of the Clock protein in skin samples aged during culture. Samples of human skin are cultured at the air/liquid interface for 62 hr and 134 hr. The peptide SEQ ID no. 1 diluted to 1% (from a 10^−4M solution) is applied topically to these samples at a rate of two times per day during the period of the experiment.
# (§1) Skin samples not treated with the peptide SEQ ID no. 3 serve as a control. The skin samples are fixed with 10% formaldehyde and enclosed in paraffin. Sectional cuts of 3 μm are made with a microtome. The immunolabeling is carried out after removal of the paraffin and unmasking of the antigenic sites. The immunolabeling for the Clock protein is carried out by means of an anti-rabbit antibody (ABcam) diluted 1/250 and a secondary antibody diluted 1/50 and coupled to a fluorochrome.
# (§2) The slides are then mounted in a suitable medium and observed under epifluorescence microscope (Nikon Eclipse E600).
# [2] = tested on: BMAL-1 protein; experiment: Immunolabeling of BMAL-1 protein in skin biopsies ex vivo; format: cell-based, human; details: treated skin
# Procedure: (§3) A study of the activating effect of the peptide SEQ ID no. 3 was carried out by evaluating the expression of Clock, Per-1 and BMAL-1 proteins in skin biopsies ex vivo.
# (§4) Ex vivo studies by immunolabeling have made it possible to evidence the expression of Clock, Per-1 and BMAL-1 proteins in skin samples. Samples of human skin are cultured at the air/liquid interface. The peptide SEQ ID no. 3 diluted to 1% (from a 10^−4M solution) is applied topically to these samples for 48 hr.
# as §1, with “μm are then made with” for “μm are made with”, “of an antibody (ABcam)” for “of an anti-rabbit antibody (ABcam)”
# The immunolabeling for the BMAL-1 protein is carried out by a polyclonal antibody (Aviva Systems Biology) diluted 1/120 and a secondary antibody diluted 1/50 and coupled to a fluorochrome.
# as §2
# [3] = tested on: Per-1 protein; experiment: Immunolabeling of Per-1 protein in skin biopsies ex vivo; format: cell-based, human; details: treated skin
# Procedure: as §3, §4
# as §1, with “μm are then made with” for “μm are made with”, “of an antibody (ABcam)” for “of an anti-rabbit antibody (ABcam)”
# The immunolabeling for the Per-1 protein is carried out by a polyclonal antibody (Cosmobio) diluted 1/100 and a secondary antibody diluted 1/50 and coupled to a fluorochrome.
# as §2
# [4] = tested on: Clock protein; experiment: Immunolabeling of Clock protein in skin biopsies ex vivo; format: cell-based, human; details: treated skin
# Procedure: as §3, §4
# as §1, with “μm are then made with” for “μm are made with”, “of an antibody (ABcam)” for “of an anti-rabbit antibody (ABcam)”
# as §2
# [5] = tested on: cultured fibroblasts; experiment: Beta-galactosidase (X-gal) senescence labeling of cultured fibroblasts; format: cell-based; details: peptide diluted to 1%, once a day, versus untreated control cells
# Procedure: A study of the anti-aging effect of the peptide SEQ ID no. 3 was carried out by evaluating the activity of the beta-galactosidase on cultured fibroblasts in the short and long term. In fact, beta-galactosidase is known to be present in senescent cells whereas beta-galactosidase activity is not found in pre-senescent, quiescent or immortal cells.
# Fibroblasts cultured in 8-well labtecks are kept for 2 weeks (short term effect) or 7 weeks (long term effect) in the presence or absence of the peptide SEQ ID no. 3, diluted to 1% (from a 10^−4M solution). The treatment is carried out once a day. The cells which were untreated, but kept in culture for 2 or 7 weeks per the requirements of the experiment serve as controls. On the day of labeling, the cells are rinsed, fixed in a mixture (2% glutaraldehyde-2% formaldehyde) for 3 minutes. The cells are rinsed and 300 μl of (5-bromo-4-chloro-3 indolyl b-D-galactosidase), known commonly as X-gal (substrate of beta-galactosidase), are applied. Incubation is carried out for 24 hr in an incubator in the presence of CO2, then the cells are rinsed and the labteck is quickly placed in a suitable medium. Observation is carried out under transmission microscope. The principle is simple: when the cells are senescent and contain beta-galactosidase, the X-gal substrate is cleaved into a blue, insoluble product.
# [6] = tested on: Clock protein; experiment: Western blot of Clock protein expression in cultured fibroblasts; format: cell-based
# Procedure: A study of the activating effect of the peptide SEQ ID no. 2 was carried out by evaluating the expression of the Clock proteins by western blot in cultured fibroblasts. The technique of western blotting is a semi-quantitative method which makes it possible to evaluate the level of Clock proteins in cells.
# Cultured fibroblasts are cultivated in containers with a diameter of 100 mm at 37° C. in a humidified atmosphere containing 5% CO2 for 18 hr in the presence or absence of the peptide SEQ ID no. 2, diluted to 1% (from a 10^−4M solution). The cells are rinsed and then removed from the support with the aid of an extraction buffer (20 mM TRIS, 150 mM NaCl, 10 mM EDTA, 0.2% triton […]) in the presence of a cocktail of protease inhibitors (Sigma). The proteins thus extracted are centrifuged at 4° C. at 10,000 rpm for 10 minutes, before being dosed by the BCA protein dosing kit (Pierce). The cellular lysates are mixed with a denaturing buffer and subjected to SDS-PAGE electrophoresis. The gel used is 4-12% Nupage (Invitrogen). The proteins are then transferred to a nitrocellulose membrane (Pal corporation). […] The quantitative evaluation of the proteins present in the cells was carried out using the chemiimager software (Alpha innotech Corporation USA).
"Beta-galactosidase activity (blue coloration), short term ([5]; 2 weeks)","Beta-galactosidase activity (blue coloration), long term ([5]; 7 consecutive weeks)",Substance,"labeling of the Clock protein compared to untreated control, 62 hr ([1]; after 62 hr of culturing)","labeling of the Clock protein compared to untreated control, 134 hr ([1]; after 134 hr)",amount of BMAL-1 protein versus untreated skin [2],amount of PER-1 protein versus untreated skin [3],amount of Clock protein versus untreated skin [4],"Intensity (%) of Clock protein, Experiment 1 ([6]; 1% treatment (from a 10^-4M solution), 18 hr, cultured fibroblasts, luminous intensity compared to untreated control (100%))","amount of Clock protein in the cultured fibroblasts ([6]; peptide diluted to 1%, western blot)"
largely reduced,largely reduced,Ser-Thr-Pro-NH2 [SEQ ID no. 3],increased,largely increased,greater,greater,greater,–,–
–,–,Val-Ser-Thr-Pro-Glu-NH2 (VSTPE-NH2) [SEQ ID no. 2],–,–,–,–,–,154%,significantly increases
